# Assay results: patent US11235023B2, “Beta-hairpin peptidomimetic with elastase inhibitory activity and aerosol dosage forms thereof” (POLYPHOR AG, priority 2016, dated 2022)
# Non-standard residues stand in square brackets, D forms with d. Residues, ends and D or L forms follow the SMILES beside them. Gly(octyl) = CCCCCCCC[C@H](N)C(=O)O
# Assays:
# [1] = GLP-compliant 28-day inhalation toxicity study in rats; type: in vivo, rat
# Protocol: In a GLP-compliant 28-day inhalation toxicity study in rats, conducted by Charles River Laboratories Preclinical Services, Tranent, Edinburgh, UK, the formulation described in Example 2 and dilutions thereof as well as the vehicle were administered using the Pari eFlow® XL 30 nebulizer device (Pari Pharma, Starnberg, Germany) for 100 min per day for 28 days, followed by a 2-week recovery period. […] Ten animals were used for the main toxicity study, and 5 additional animals for the recovery phase. Parameters assessed included clinical signs, body weights, food consumption, ophthalmic examination, clinical pathology, gross necropsy findings, organ weights and histopathologic examinations. […] This was associated with reduction in food consumption in treated animals. There was a good recovery in body weight gain during the recovery period between day 28 and 42.
# [2] = First-in-man study in healthy subjects, safety and tolerability of orally inhaled single doses; type: in vivo, human
# Text: In this randomised, double-blind, placebo-controlled, parallel-group (per dose level) dose-escalation study of inhaled single doses in 48 healthy subjects in six dose groups of eight subjects each, conducted by Inamed GmbH, Gauting, Germany, the controlled oral inhalation of the formulation described in Example 1 and dilutions thereof as well as the placebo (0.5% [w/w] aqueous sodium chloride solution adjusted to pH 5.5 with 1 M HCl pharmaceutical grade) occurred via the Pari eFlow® XL 30 nebulizer device (Pari Pharma GmbH, Starnberg, Germany). The dose levels and corresponding concentrations of cyclo(-OctG-Glu-Thr-Ala-Ser-Ile-Pro-Pro-Gln-Lys-Tyr-^DPro-Pro-) (active compound) are summarized in Table 10.
# The volume of placebo nebulizer solution corresponded to that of the active compound at a particular dose level. The duration of inhalation depended on the total volume of nebulizer solution and ranged between several minutes and roughly one hour. Adverse events were tabulated and summarized according to the current version of Medical Dictionary for Regulatory Activities.
# [3] = target: T1, human neutrophil elastase (Homo sapiens, UniProt P08246); assay: Phase-Ib study in CF patients, active neutrophil elastase in sputum by FRET assay; type: in vivo
# T1 construct: from tissue; host or cells: spontaneous sputum of patients with cystic fibrosis (PBS-soluble fraction)
# T1 sequence (P08246 30-267): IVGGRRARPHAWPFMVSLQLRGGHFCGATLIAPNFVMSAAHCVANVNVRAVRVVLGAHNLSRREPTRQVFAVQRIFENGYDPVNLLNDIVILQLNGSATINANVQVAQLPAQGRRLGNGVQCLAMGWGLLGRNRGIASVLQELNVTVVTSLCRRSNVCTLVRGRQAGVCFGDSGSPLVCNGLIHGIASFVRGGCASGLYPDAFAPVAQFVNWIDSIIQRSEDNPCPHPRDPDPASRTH
# Protocol: The pharmacodynamic effect of ascending single doses of active compound was investigated by evaluation of neutrophil elastase (NE) activity in sputum using FRET (fluorescence resonance energy transfer) assay after PBS aliquotation and freezing.
# On the day of screening, if possible, for baseline assessment of NE activity, on Day −1 as soon as possible after the subject's arrival at the study site for baseline assessment of NE activity, on Day 1 in the period of time between 1 h and 3 h after start of inhalation, and in the morning of Day 2, at approx. 24 h after start of inhalation.
# Spontaneous sputum samples were collected in polystyrene Petri dishes and put on ice immediately. All processing steps had to be performed with cold reagents and on ice whenever possible. Plugs were separated from saliva, but the latter was not discarded. If a sputum sample was taken for both PK and NE activity in sputum analysis, the plug was split in 2 approximately equal parts. One part was processed for evaluation of NE activity in sputum the other one for PK analysis, as described above.
# For evaluation of NE activity in sputum, at first, the weight of the sputum sample was determined and 8 mL cold phosphate-buffered saline (PBS) per gram purified sputum was added. The sample was vortexed for 30 s at room temperature (15-24° C.). Then, the soluble fraction was separated from the sputum pellet by centrifugation (10 min at 1000×g and 4° C.). The supernatant was transferred to a fresh tube.
# Remaining insoluble particles were separated by a second centrifugation step at 3500×g for 15 min at 4° C. If the supernatant was not aliquoted immediately, the PBS/sputum supernatant was transferred to a fresh tube.
# 10 aliquots of 50 μL PBS/sputum were transferred into transfer tubes for evaluation. Moreover, 4 aliquots of 50 μL PBS/sputum were transferred into transfer tubes as backup. In case there was a leftover, the remaining volume was immediately transferred into a transfer tube for evaluation. Any leftover exceeding 2.0 mL was discarded.
# The NE activity in sputum was evaluated by using a FRET elastase assay adapted from an assay described in Nature Protocols, 2008, 3, 991 (B. Korkmaz, S. Attucci, M. A. Juliano et al.) and validated by MLM Medical Labs GmbH, Mönchengladbach, Germany.
# The assay is based on the reaction of human neutrophil elastase with the substrate 2Abz-Ala-Pro-Glu-Glu-Ile-Met-Arg-Arg-Gln-Tyr(3NO2)—OH (GeneCust Europe S. A., Ellange, Luxembourg, #P160301-SY452824). By adding the substrate solution the enzyme reaction is started and the elastase present in the samples reacts with added substrate. The product of the reaction is detected through fluorescence measurement and the initial reaction velocity is determined. The concentration of active elastase in the unknown samples is back-calculated using the calibration curve calculated from the standards.
# An elastase reference stock solution (human neutrophil elastase [ELA2], Höltzel Diagnostika, Köln, Germany, #PN31255) with known enzymatic activity was prepared. The exact active elastase enzyme concentration was determined by titration against an alpha 1-antitrypsin solution (Athens Research and Technology, Athens, USA, #16-16-011609), with a defined concentration. The active elastase reference stock solution was adjusted by addition of PBS to a concentration of 3000 nM and aliquots were stored at −80° C.
# The FRET assay was performed in 96 well white microtiter plates in total volume of 100 μL per well. PBS sputum dilutions of 1:5, 1:50 and 1:100 in elastase reaction buffer (50 mM HEPES, pH 7.4, 750 mM NaCl, 0.05% [v/v] NP-40) were prepared, 5 uL loaded per well and 90 uL elastase reaction buffer were added. A 5 mM substrate stock solution of 2Abz-Ala-Pro-Glu-Glu-Ile-Met-Arg-Arg-Gln-Tyr(3NO2)—OH in 30% (v/v) N,N-dimethylformamide/water was prepared and further diluted to 400 nM by addition of elastase reaction buffer. […]
smiles,measurement,setting,value
"CCCCCCCC[C@@H]1NC(=O)[C@@H]2CCCN2C(=O)[C@H]2CCCN2C(=O)[C@H](Cc2ccc(O)cc2)NC(=O)[C@H](CCCCN)NC(=O)[C@H](CCC(N)=O)NC(=O)[C@@H]2CCCN2C(=O)[C@@H]2CCCN2C(=O)[C@H]([C@@H](C)CC)NC(=O)[C@H](CO)NC(=O)[C@H](C)NC(=O)[C@H]([C@@H](C)O)NC(=O)[C@H](CCC(=O)O)NC1=O [active compound, cyclo(-OctG-Glu-Thr-Ala-Ser-Ile-Pro-Pro-Gln-Lys-Tyr-^DPro-Pro-)] (cyclo([Gly(octyl)]ETASIPPQKY[dP]P))",NOAEL at 28 days,"[1]; in vivo, inhaled or intranasal, rat, inhalation 100 min per day for 28 days, read-out: No Observed Adverse Effect Level (NOAEL)",119 mg/kg/day
same,Body weight gain,[1]; male rats at 119 mg/kg/day vs vehicle control,Slightly reduced
same,Clinical signs and ophthalmic findings,"[1]; rat, 11, 53 and 119 mg/kg/day",no clinical signs or ophthalmic findings
same,"Clinical pathology (haematology, coagulation, clinical chemistry, urinalysis)","[1]; rat, in vivo",no findings in clinical pathology
same,Histopathology of the larynx,"[1]; rat, in vivo",focal minimal squamous metaplasia without cellular atypia of dysplasia
same,Histopathology of the lungs,"[1]; rat, in vivo",minimal to moderate multifocal alveolar macrophage accumulation
same,"Deaths, serious and other significant adverse events","[2]; healthy subjects, single inhaled doses 20-960 mg","No death, no serious adverse events (AE) and no other significant AE"
same,"Inhalation-related adverse events ('cough'), local tolerability","[2]; human, in vivo",three
same,Number of subjects with AEs,"[2]; human, in vivo",13
same,Number of treatment-emergent adverse events (TEAEs),"[2]; human, in vivo",24
same,Proportion of subjects with AEs,"[2]; human, in vivo",27.1%
same,Subjects judging overall tolerability as 'very good' or 'good',"[2]; human, in vivo",97.9%
same,Mean concentration of active NE in sputum after single-dose inhalation,"[3]; CF patients, 80-320 mg, extent independent of dose",strongly decreased
same,Mean concentration of active NE in sputum at 24 h after inhalation,"[3]; CF patients, high data variability",returned to baseline levels
same,Mean (SD) concentration of active NE in sputum,"[3]; dose level 1 (80 mg), 1-3 h after inhalation, predose 18823.6 (19758.72)",612.5 (1218.62) ng/mL
same,Mean (SD) concentration of active NE in sputum,"[3]; dose level 1 (80 mg), 24 h after inhalation",1467.7 (2154.43) ng/mL
same,Mean (SD) concentration of active NE in sputum,"[3]; dose level 2 (160 mg), 1-3 h after inhalation, predose 9548.7 (6222.55)",115.0 (0.00) ng/mL
same,Mean (SD) concentration of active NE in sputum,"[3]; dose level 2 (160 mg), 24 h after inhalation",16849.4 (23518.56) ng/mL
same,Mean (SD) concentration of active NE in sputum,"[3]; dose level 3 (320 mg), 1-3 h after inhalation, predose 10480.7 (10528.00)",115.0 (0.00) ng/mL
same,Mean (SD) concentration of active NE in sputum,"[3]; dose level 3 (320 mg), 24 h after inhalation",7712.5 (11394.04) ng/mL
same,Inhibition of active elastase in sputum,"[3]; over several hours after single dose, all dose groups (FIG. 5)",> 90%
